{"source": "patent US5721359A", "about": "“Crystalline ceftiofur free acid” (Pharmacia & Upjohn Company, priority 1995, dated 1998)", "key": {"[1]": {"assay": "Comparison of time above minimum plasma concentration for ceftiofur derivatives", "type": "in vivo", "excerpt": "Using the criteria for sustained release as the time which plasma concentrations remain above some minimum concentration (t>0.2), a comparison of various derivatives of ceftiofur can be made. […] This difference is of practical and statistical significance."}, "[2]": {"assay": "Stability in bulk, aqueous and other formulations", "type": "physicochemical"}, "[3]": {"assay": "Dissolution rate (Table II, FIG. 9)", "type": "physicochemical", "details": "shown graphically in FIG. 9", "excerpt": "\"Dissolution rate\" is the kinetic translation of solubility for a well stirred system under sink conditions."}, "[4]": {"assay": "Processing (micronization)", "type": "physicochemical", "details": "Table II, cell wraps: 'Difficult to micronize'"}, "[5]": {"assay": "In vitro dissolution of ceftiofur oil suspension formulations (Example 7)", "type": "physicochemical", "details": "100 mg/ml oil formulation, 500 ml pH 7 aqueous media, 50 RPM paddle, FIG. 6", "description": "100 mg samples of crystalline ceftiofur free acid, amorphous ceftiofur free acid (prepared as described in Example 1) and crystalline ceftiofur hydrochloride, which were all prepared as oil formulations as described in Example 4 above, were loaded into teflon dissolution cells and sealed with a constant surface area dialysis membrane. The loaded cells were placed in a standard dissolution apparatus containing 500 ml of pH 7 aqueous dissolution media which was stirred by a 50 RPM rotating paddle.\nThe results obtained are shown below in FIG. 6 below."}, "[6]": {"assay": "Plasma disposition of crystalline ceftiofur hydrochloride and crystalline ceftiofur free acid oil suspensions in cattle (Example 9)", "type": "in vivo", "details": "SC, 2.2 mg/kg, oil suspension, 16 animals/treatment; separate studies", "description": "In separate but similarly designed studies conducted in the same laboratory, crystalline ceftiofur free acid (CFA) and crystalline ceftiofur hydrochloride (HCl) suspensions were administered subcutaneously to cattle at a dose of 2.2 mg/kg body weight. In each experiment, plasma samples were obtained for up to 120 hours after drug administration for determination of ceftiofur and its metabolites. The results are shown graphically in FIG. 8 below by plotting plasma concentration (on a logarithmic scale) versus time using average data for 16 animals/treatment. The primary decision criteria (that most related to efficacy) was considered to be the time that the ceftiofur metabolite concentrations remained above 0.2 mcg/ml (t>0.2). Less important parameters measures included \"area under the concentration-time curve\" (AUC) for each treatment and time to peak and peak concentrations."}, "In vivo release": {"assay": "In vivo release", "details": "for In Vivo Release: Table II; for sustained release properties in vivo: in words", "excerpt": "\"In-vivo release\" is the biological consequence of the dissolution rate of a compound which is characterized by time to maximum concentration and the maximum concentration in the biological fluid of interest."}, "Solubility": {"assay": "Solubility", "type": "physicochemical", "details": "for solubility in aqueous solvents, comparison crystalline free acid vs crystalline hydrochloride: in words; for Solubility-pH7: pH 7", "excerpt": "\"Solubility\" is a direct consequence of a solid's structure and the intermolecular forces holding the solid together and is defined as the mount of drug which exists in solution when equilibrium is achieved between solution and solid state material."}, "Hygroscopity": {"assay": "Hygroscopity", "type": "physicochemical", "details": "for Hygroscopity: Table II", "excerpt": "\"Hygroscopity\" is the ability of a compound to pick up moisture from or yield moisture to the atmosphere with changes in relative humidity."}, "[7]": {"assay": "Plasma disposition of oil suspension of ceftiofur crystalline free acid vs aqueous solution of ceftiofur sodium in cattle (Example 6)", "type": "in vivo, cattle (Holstein calves)", "details": "SC; for t>0.2 (time ceftiofur metabolite concentrations remained above 0.2 μg/mL): 2.2 mg ceftiofur activity/kg", "description": "Sixteen Holstein calves were administered ceftiofur crystalline free acid in an oil suspension (100 mg/mL) or ceftiofur sodium (NAXCEL® Sterile Powder) as an aqueous solution (50 mg/mL) subcutaneously (SC) in a crossover study (each calf received each treatment), with a two-week washout period between doses (2.2 mg ceftiofur activity/kg body weight). Blood samples were obtained serially for 120 hours after drug administration for analysis of ceftiofur and metabolites (measured as desfuroylceftiofur acetamide by HPLC). The primary decision variable was the time ceftiofur metabolite concentrations remained above 0.2 μg/mL (t>0.2), with secondary decision variables being \"relative area under the concentration-time curve\" (AUC) of the treatments and injection site irritancy assessed antemortem by visual and manual inspection of the injection site over time. Both t>0.2 and AUC were calculated using both the predictive pharmacokinetic equation method and the direct graphical method of trapezoids (AUC) and log-linear interpolation (t>0.2)."}, "[8]": {"design": "species or system cattle", "details": "bovine, in vivo, sc, 4.4 mg/kg", "description": "Cattle were administered a single subcutaneous dose (4.4 mg/kg body weight) of crystalline ceftiofur free acid and amorphous ceftiofur free acid (both prepared and then formulated as described above in Examples 1, 3 and 4). The concentration of plasma ceftiofur and desfuroylceftiofur related metabolites were determined over time for 120 hours. The primary decision criteria (that most related to efficacy) was considered to be the time that the ceftiofur metabolite concentrations remained above 0.2 mcg/ml (t>0.2). Less important parameters calculated included \"area under the concentration-time curve\" (AUC) for each treatment and time to maximum concentrations (tmax).\nThe results are shown graphically in FIG. 7 below by plotting plasma concentration of desfuroylceftiofur acetamide (DCA) versus time using average data for 6 animals/treatment. […] This is especially important in light of the two forms obtaining statistically equivalent peak concentrations (9.1 mcg/ml for the amorphous ceftiofur free acid versus 7.3 mcg/ml for the crystalline ceftiofur free acid)."}, "[9]": {"assay": "Plasma disposition of aqueous suspensions of ceftiofur crystalline free acid in cattle (Example 5)", "type": "in vivo, cattle (Holstein calves)", "details": "aqueous suspension 100 mg/mL, single dose 1.1 mg ceftiofur activity/kg", "description": "Sixteen Holstein calves were administered ceftiofur crystalline free acid in an aqueous suspension (100 mg/mL) by the intramuscular (IM) or subcutaneous (SC) route of administration as a single dose of 1.1 mg ceftiofur activity/kg in a crossover study (each calf got each treatment), with a two-week washout between doses. Blood samples were obtained serially for 120 hours for analysis of ceftiofur and metabolites (measured as desfuroylceftiofur acetamide by HPLC). The primary decision variable was the time ceftiofur metabolite concentrations remained above 0.2 μg/mL (t>0.2), with secondary decision variables being \"relative area under the concentration-time curve\" (AUC) of the treatments and injection site irritancy assessed antemortem by visual and manual inspection of the injection sites over time. Both t>0.2 and AUC were calculated using both the predictive pharmacokinetic equation method and the direct graphical method of trapezoids (AUC) and log linear interpolation (t>0.2)."}, "[10]": {"details": "unstable in 6 weeks (cell wraps over two lines)"}, "[11]": {"details": "listed as Crystalline Free Acid"}}, "note": "Entries after “also recorded” stand apart in the source; their conditions may differ. Where a name gives a salt, the structure may show the parent alone. Read-outs that look alike come from different tables or passages of the source."}
{"compound": "zinc", "values": [{"measurement": "rank order of duration above minimum plasma concentration (t>0.2)", "setting": "[1]; in vivo", "value": "sodium<crystallinehydrochloride<zinc<crystalline free acid"}, {"measurement": "rank order of time above the selected minimum plasma concentration (t>0.2)", "setting": "[1]; in vivo", "value": "sodium<crystalline hydrochloride<crystalline free acid<zinc"}]}
{"compound": "CO/N=C(\\C(=O)N[C@@H]1C(=O)N2C(C(=O)O)=C(CSC(=O)c3ccco3)CS[C@H]12)c1csc(N)n1", "note": "[crystalline ceftiofur hydrochloride, reference compound]", "values": [{"measurement": "Stability in Aqueous Formulations (>90% initial potency)", "setting": "[2]; [10]", "value": "Unstable"}, {"measurement": "Dissolution Rate", "setting": "[3]", "value": "Fast"}, {"measurement": "Processing (micronize)", "setting": "[4]", "value": "Micronizes easier"}, {"measurement": "release from the oil formulation into the dissolution media", "setting": "[5]", "value": "very fast release"}, {"measurement": "t>0.2 (time metabolite concentrations remained above 0.2 mcg/ml)", "setting": "[6]", "value": 38.5, "unit": "h"}, {"measurement": "In Vivo Release", "setting": "In vivo release", "value": "Fast"}, {"measurement": "sustained release properties in vivo", "setting": "In vivo release", "value": "does not have useful sustained release properties"}, {"measurement": "solubility in aqueous solvents, comparison crystalline free acid vs crystalline hydrochloride", "setting": "Solubility", "value": "much greater solubility than the crystalline free acid"}, {"measurement": "solubility", "setting": "Solubility; pH 7, pH 7, cell of crystalline hydrochloride salt, read-out: Solubility-pH7", "value": "~100", "unit": "mg/mL"}, {"measurement": "Hygroscopity", "setting": "Hygroscopity", "value": "Moderate"}]}
{"compound": "CO/N=C(\\C(=O)N[C@@H]1C(=O)N2C(C(=O)O)=C(CSC(=O)c3ccco3)CS[C@H]12)c1csc(N)n1", "note": "[ceftiofur sodium]", "values": [{"measurement": "t>0.2 (time ceftiofur metabolite concentrations remained above 0.2 μg/mL)", "setting": "[7]; aqueous solution 50 mg/mL", "value": 45.50, "unit": "h"}, {"measurement": "rank order of time above the selected minimum plasma concentration (t>0.2)", "setting": "[1]; aqueous formulations", "value": "sodium<crystalline hydrochloride<crystalline free acid<zinc"}, {"measurement": "rank order of duration above minimum plasma concentration (t>0.2)", "setting": "[1]; oil formulations", "value": "sodium<crystallinehydrochloride<zinc<crystalline free acid"}]}
{"compound": "CON=C(C(=O)NC1C(=O)N2C(C(=O)O)=C(CSC(=O)c3ccco3)CSC12)c1csc(N)n1", "note": "(stereo not shown) [crystalline ceftiofur free acid]", "values": [{"measurement": "Stability in Aqueous Formulations (>90% initial potency)", "setting": "[2]; >90% initial potency", "value": "Stable for 6 months"}, {"measurement": "stability (in bulk and formulations) relative to crystalline hydrochloride salt and amorphous free acid", "setting": "[2]; in words", "value": "superior"}, {"measurement": "Dissolution Rate", "setting": "[3]", "value": "slow dissolution rate; also recorded: slower"}, {"measurement": "Dissolution Rate", "setting": "[3]; [11]", "value": "Slow"}, {"measurement": "Processing (micronize)", "setting": "[4]; [11]", "value": "Micronizes easier"}, {"measurement": "release from the oil formulation into the dissolution media", "setting": "[5]", "value": "significantly reduced release"}, {"measurement": "terminal phase half-life (absorption phase, flip-flop model) compared with ceftiofur sodium", "setting": "[7]; crystalline free acid in oil, 2.2 mg/kg", "value": "longer"}, {"measurement": "t>0.2 (time ceftiofur metabolite concentrations remained above 0.2 μg/mL)", "setting": "[7]; oil suspension 100 mg/mL, P<0.0001 vs ceftiofur sodium", "value": 121.58, "unit": "h"}, {"measurement": "bioavailability compared with aqueous solution of ceftiofur sodium", "setting": "[7]; oil suspension vs aqueous solution, 2.2 mg/kg, P>0.05", "value": "equally bioavailable"}, {"measurement": "t>0.2 (time metabolite concentrations remained above 0.2 mcg/ml)", "setting": "[6]", "value": 121.6, "unit": "h"}, {"measurement": "AUC (area under the concentration-time curve)", "setting": "[8]", "value": 183, "unit": "µg·h/mL"}, {"measurement": "AUC compared with amorphous ceftiofur free acid", "setting": "[8]", "value": "more than twice"}, {"measurement": "peak concentrations", "setting": "[8]", "value": 7.3, "unit": "µg/mL"}, {"measurement": "t>0.2 (time metabolite concentrations remained above 0.2 mcg/ml)", "setting": "[8]", "value": 101, "unit": "h"}, {"measurement": "time to peak concentration (tmax)", "setting": "[8]", "value": 8, "unit": "h"}, {"measurement": "In Vivo Release", "setting": "In vivo release; [11]", "value": "Prolonged"}, {"measurement": "sustained release properties in vivo", "setting": "In vivo release", "value": "has sustained release properties in vivo"}, {"measurement": "solubility in aqueous solvents, comparison crystalline free acid vs crystalline hydrochloride", "setting": "Solubility", "value": "lower solubility in aqueous solvents than its crystalline hydrochloride salt"}, {"measurement": "solubility in non-polar solvents", "setting": "Solubility; non-polar solvents", "value": "insoluble in non-polar solvents"}, {"measurement": "Solubility-pH7", "setting": "Solubility; [11]", "value": "≈ 8 mg/mL"}, {"measurement": "solubility in water", "setting": "Solubility; water", "value": "sparingly soluble in water"}, {"measurement": "rank order of time above the selected minimum plasma concentration (t>0.2)", "setting": "[1]; aqueous formulations", "value": "sodium<crystalline hydrochloride<crystalline free acid<zinc"}, {"measurement": "rank order of duration above minimum plasma concentration (t>0.2)", "setting": "[1]; oil formulations", "value": "the longest"}, {"measurement": "t>0.2 (time ceftiofur metabolite concentrations remained above 0.2 μg/mL)", "setting": "[9]; IM", "value": 26.98, "unit": "h"}, {"measurement": "t>0.2 (time ceftiofur metabolite concentrations remained above 0.2 μg/mL)", "setting": "[9]; SC, P=0.257 vs IM", "value": 30.43, "unit": "h"}, {"measurement": "Hygroscopity", "setting": "Hygroscopity; [11]", "value": "Low"}, {"measurement": "hygroscopicity relative to crystalline hydrochloride salt and amorphous free acid", "setting": "Hygroscopity; in words", "value": "superior"}]}
{"compound": "CON=C(C(=O)NC1C(=O)N2C(C(=O)O)=C(CSC(=O)c3ccco3)CSC12)c1csc(N)n1", "note": "(stereo not shown) [amorphous ceftiofur free acid, reference compound]", "values": [{"measurement": "Stability in Aqueous Formulations (>90% initial potency)", "setting": "[2]; [10]", "value": "Unstable"}, {"measurement": "Dissolution Rate", "setting": "[3]; listed as Amorphous Free Acid", "value": "Fast"}, {"measurement": "release from the oil formulation into the dissolution media", "setting": "[5]", "value": "very fast release"}, {"measurement": "AUC (area under the concentration-time curve)", "setting": "[8]", "value": 70, "unit": "µg·h/mL"}, {"measurement": "peak concentrations", "setting": "[8]", "value": 9.1, "unit": "µg/mL"}, {"measurement": "t>0.2 (time metabolite concentrations remained above 0.2 mcg/ml)", "setting": "[8]", "value": 41, "unit": "h"}, {"measurement": "time to peak concentration (tmax)", "setting": "[8]", "value": 2, "unit": "h"}, {"measurement": "In Vivo Release", "setting": "In vivo release; listed as Amorphous Free Acid", "value": "Fast"}, {"measurement": "Solubility-pH7", "setting": "Solubility; listed as Amorphous Free Acid", "value": "≈ 100 mg/mL"}, {"measurement": "Hygroscopity", "setting": "Hygroscopity; listed as Amorphous Free Acid", "value": "High"}]}
